Patent publication US8906914B2, “Ethylene diamine modulators of fatty acid hydrolase” (priority 2009, dated 2014)
Counter-ions that a name gives are not always drawn.

Legend:
Rat FAAH-1 = molecular target: T1, Rat FAAH-1 (Rattus norvegicus, UniProt P97612); assay: Rat FAAH-1 assay (Assay Method 2), 3H-anandamide hydrolysis in cell homogenate; assay type: biochemical
T1 construct: expressed in transfected cells
T1 sequence (P97612 1-579): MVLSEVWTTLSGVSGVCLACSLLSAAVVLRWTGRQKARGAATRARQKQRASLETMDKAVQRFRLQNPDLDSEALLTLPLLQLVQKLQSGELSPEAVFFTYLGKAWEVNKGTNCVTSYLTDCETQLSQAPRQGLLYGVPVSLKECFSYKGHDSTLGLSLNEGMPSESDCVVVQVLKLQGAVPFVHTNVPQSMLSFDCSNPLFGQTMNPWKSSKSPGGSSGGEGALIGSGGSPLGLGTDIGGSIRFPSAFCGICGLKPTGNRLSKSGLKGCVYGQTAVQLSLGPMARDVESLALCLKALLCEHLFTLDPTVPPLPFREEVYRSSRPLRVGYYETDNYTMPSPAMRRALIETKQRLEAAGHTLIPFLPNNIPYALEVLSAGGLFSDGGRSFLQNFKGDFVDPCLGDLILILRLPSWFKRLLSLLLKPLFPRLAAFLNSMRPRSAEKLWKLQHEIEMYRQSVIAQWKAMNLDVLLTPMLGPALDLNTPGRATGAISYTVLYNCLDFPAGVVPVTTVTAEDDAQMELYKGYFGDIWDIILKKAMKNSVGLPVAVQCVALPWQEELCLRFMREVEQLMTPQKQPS
Protocol: A. Transfection of Cells with Rat FAAH-1
(§1) A 10-cm tissue culture dish with a confluent monolayer of SK-N-MC cells was split 2 days (d) prior to transfection. Using sterile technique, the media was removed and the cells were detached from the dish by the addition of trypsin. One fifth of the cells were then placed onto a new 10-cm dish. Cells were grown in a 37° C. incubator with 5% CO2 in Minimal Essential Media Eagle with 10% Fetal Bovine Serum. After 2 d, cells were approximately 80% confluent. These cells were removed from the dish with trypsin and pelleted in a clinical centrifuge. The pellet was re-suspended in 400 μL complete media and transferred to an electroporation cuvette with a 0.4 cm gap between the electrodes. Supercoiled rat FAAH cDNA (1 μg) was added to the cells and mixed. The voltage for the electroporation was set at 0.25 kV, and the capacitance was set at 960 μF. After electroporation, the cells were diluted into complete media (10 mL) and plated onto four 10-cm dishes. Because of the variability in the efficiency of electroporation, four different concentrations of cells were plated. The ratios used were 1:20, 1:10, and 1:5, with the remainder of the cells being added to the fourth dish. The cells were allowed to recover for 24 h before adding the selection media (complete media with 600 μg/mL G418). After 10 d, dishes were analyzed for surviving colonies of cells. Dishes with well-isolated colonies were used. Cells from individual colonies were isolated and tested.
(§2) The assay mixture consisted of 50 μL of the cell homogenate, 10 μL of the test compound, and 40 μL of anandamide [1-^3H-ethanolamine] (^3H-AEA, Perkin-Elmer, 10.3 Ci/mmol), which was added last, for a final tracer concentration of 80 nM. The reaction mixture was incubated at rt for 1 h. During the incubation, 96-well Multiscreen filter plates (catalog number MAFCNOB50; Millipore, Bedford, Mass., USA) were loaded with 25 μL of activated charcoal (Multiscreen column loader, catalog number MACL09625, Millipore) and washed once with 100 μL of MeOH. Also during the incubation, 96-well DYNEX MicroLite plates (catalog number NL510410) were loaded with 100 μL of MicroScint40 (catalog number 6013641, Packard Bioscience, Meriden, Conn., USA). After the 1 h incubation, 60 μL of the reaction mixture were transferred to the charcoal plates, which were then assembled on top of the DYNEX plates using Centrifuge Alignment Frames (catalog number MACF09604, Millipore). The unbound labeled ethanolamine was centrifuged through to the bottom plate (5 min at 2000 rpm), which was preloaded with the scintillant, as described above. The plates were sealed and left at rt for 1 h before counting on a Hewlett Packard TopCount.
(§3) Where activity is shown as greater than (>) a particular value, the value is the solubility limit of the compound in the assay medium or the highest concentration tested in the assay.

FAAH = molecular target: T2, FAAH (Homo sapiens, UniProt O00519); assay: Human FAAH assay (Assay Method 1), 3H-anandamide hydrolysis in cell homogenate; assay type: biochemical; set-up: expressed in transfected cells; alternatively T84 frozen cell pellets (endogenous FAAH)
T2 sequence (O00519 1-579): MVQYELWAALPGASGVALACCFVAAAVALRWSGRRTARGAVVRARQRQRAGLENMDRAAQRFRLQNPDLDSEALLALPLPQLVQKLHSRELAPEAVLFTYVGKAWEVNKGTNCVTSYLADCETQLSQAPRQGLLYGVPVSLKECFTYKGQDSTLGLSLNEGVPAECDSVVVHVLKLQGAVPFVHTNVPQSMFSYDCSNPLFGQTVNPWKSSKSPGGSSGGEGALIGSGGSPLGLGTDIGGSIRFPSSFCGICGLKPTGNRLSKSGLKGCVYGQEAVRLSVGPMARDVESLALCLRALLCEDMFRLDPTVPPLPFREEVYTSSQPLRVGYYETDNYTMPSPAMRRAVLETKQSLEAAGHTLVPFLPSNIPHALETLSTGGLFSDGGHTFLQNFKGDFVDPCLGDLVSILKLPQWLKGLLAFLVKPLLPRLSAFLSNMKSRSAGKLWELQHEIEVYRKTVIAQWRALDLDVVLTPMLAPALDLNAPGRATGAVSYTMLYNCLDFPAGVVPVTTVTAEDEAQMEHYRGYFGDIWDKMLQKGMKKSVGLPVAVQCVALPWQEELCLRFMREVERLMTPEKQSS
Protocol: A. Transfection of Cells with Human FAAH
as §1, with “Supercoiled human” for “Supercoiled rat”
as §2, with “[1-3H-ethanolamine]” for “[1-^3H-ethanolamine]”
as §3

Row | SMILES | IC50 (Rat FAAH-1) | IC50 (FAAH)
1 | N[C@@H](CNc1cc(-c2ccc(Cl)c(Cl)c2)ncn1)c1ccccc1 [Example 16, (1R)—N^2-[6-(3,4-Dichlorophenyl)pyrimidin-4-yl]-1-phenylethane-1,2-diamine hydrochloride acid salt] | 500 nM | 90 nM
2 | N[C@@H](CNc1cc(-c2cccc(Cl)c2)ncn1)c1ccccc1 [Example 15, (1R)—N^2-[6-(3-Chlorophenyl)pyrimidin-4-yl]-1-phenylethane-1,2-diamine hydrochloride acid salt] |  | 1000 nM
3 | COc1ccccc1[C@@H](N)CNc1cc(-c2ccc(C(F)(F)F)c(Cl)c2)ncn1 [Example 56, (1R)—N^2-[6-(3-Chloro-4-trifluoromethyl-phenyl)-pyrimidin-4-yl]-1-(2-methoxy-phenyl)-ethane-1,2-diamine] | 6000 nM | 1200 nM
4 | N[C@@H](CNc1cc(-c2ccc(C(F)(F)F)cc2)ncn1)c1ccccc1 [Example 5, (1R)-1-Phenyl-N^2-{6-[4-(trifluoromethyl)phenyl]pyrimidin-4-yl}ethane-1,2-diamine hydrochloride acid salt] | 1000 nM | 130 nM
5 | N[C@H](CNc1cc(-c2ccc(C(F)(F)F)c(Cl)c2)ncn1)c1ccc(Cl)cc1 [Example 38, (1S)—N^2-1-(4-Chloro-phenyl)-[6-(3-chloro-4-trifluoromethyl-phenyl)-pyrimidin-4-yl]-ethane-1,2-diamine, trifluoroacetic acid salt] | 2200 nM | 1600 nM
6 | N#Cc1cc([C@@H](N)CNc2cc(-c3ccc(C(F)(F)F)c(Cl)c3)ncn2)ccc1F [Example 62, (1R)-5-{1-Amino-2-[6-(3-chloro-4-trifluoromethyl-phenyl)-pyrimidin-4-ylamino]-ethyl}-2-fluoro-benzonitrile] | 300 nM | 320 nM

Results, then the compound that gave them:

Row | IC50 (Rat FAAH-1) | IC50 (FAAH) | SMILES
7 | 130 nM | 180 nM | N[C@@H](CNc1cc(-c2ccc(C(F)(F)F)c(Cl)c2)ncn1)c1ccc(SC(F)(F)F)cc1 [Example 61, (1R)—N^2-[6-(3-Chloro-4-trifluoromethyl-phenyl)-pyrimidin-4-yl]-1-(4-trifluoromethylsulfanyl-phenyl)-ethane-1,2-diamine]
8 | 70 nM | 80 nM | N[C@@H](CNc1cc(-c2ccc(C(F)(F)F)c(Cl)c2)ncn1)c1ccc(Cl)c(F)c1 [Example 45, (1R)—N^2-1-(4-Chloro-3-fluoro-phenyl)-[6-(3-chloro-4-trifluoromethyl-phenyl)-pyrimidin-4-yl]-ethane-1,2-diamine]
9 | 110 nM | 39 nM | N[C@@H](CNc1cc(-c2ccc(C(F)(F)F)c(Cl)c2)ncn1)c1cccc(F)c1 [Example 37, (1R)—N^2-[6-(3-Chloro-4-trifluoromethyl-phenyl)-pyrimidin-4-yl]-1-(3-fluoro-phenyl)-ethane-1,2-diamine, trifluoroacetic acid salt]
10 | 60 nM | 50 nM | N[C@@H](CNc1cc(-c2ccc(C(F)(F)F)c(Cl)c2)ncn1)c1ccccc1 [Example 1, (1R)—N^2-{6-[3-Chloro-4-(trifluoromethyl)phenyl]pyrimidin-4-yl}-1-phenylethane-1,2-diamine hydrochloride acid salt]
11 | 52 nM | 160 nM | N[C@@H](CNc1cc(-c2ccc(C(F)(F)F)c(Cl)c2)ncn1)c1ccc(C(F)(F)F)cc1 [Example 30, (1R)—N^2-[6-(3-Chloro-4-trifluoromethyl-phenyl)-pyrimidin-4-yl]-1-(4-trifluoromethyl-phenyl)-ethane-1,2-diamine]
12 | 280 nM | 170 nM | NC(CNc1cc(-c2ccc(C(F)(F)F)c(Cl)c2)ncn1)c1ccccc1F (stereo not drawn) [Example 35, N^2-[6-(3-Chloro-4-trifluoromethyl-phenyl)-pyrimidin-4-yl]-1-(2-fluoro-phenyl)-ethane-1,2-diamine]
13 | 120 nM | 53 nM | N[C@@H](CNc1cc(-c2ccc(OC(F)(F)F)c(Cl)c2)ncn1)c1ccccc1 [Example 7, (1R)—N^2-{6-[3-Chloro-4-(trifluoromethoxy)phenyl]pyrimidin-4-yl}-1-phenylethane-1,2-diamine hydrochloride acid salt]
14 | 11 nM | 30 nM | N[C@@H](CNc1cc(-c2ccc(C(F)(F)F)c(Cl)c2)ncn1)c1ccc2c(c1)OC(F)(F)O2 [Example 32, (1R)—N^2-[6-(3-Chloro-4-trifluoromethyl-phenyl)-pyrimidin-4-yl]-1-(2,2-difluoro-benzo[1,3]dioxol-5-yl)-ethane-1,2-diamine]
